Experimental data from patent EP2439188B1, “p-Menthane-3,8-diol derivatives and insect repellents comprising them” (priority 2010, dated 2012).
Like-named read-outs stand apart in the source and are kept apart here.

Assays:
Solubility in water = type: physicochemical
Description: Tabelle 1 zeigt die Wasserlöslichkeit der erfindungsgemäßen Verbindung PMD-S (para-Menthane-3,8-diol Succinat) im Vergleich zu üblichen in Insektenschutzmitteln eingesetzten Wirkstoffen. Tabelle 1

HeLa-Zellen = test: cells; type: cell-based; conditions: Homo sapiens, concentration at which 50 % of the cells die, relative to untreated control cells
Description: (§1) Hierzu wurden Zytotoxizitätsstudien an HeLa-Zellen und an Keratinozyten (SK-Mel-28) durchgeführt. Erstere Tests gelten als gute Alternative zu in vivo Draize Augenreizungstests, während letztere ein gutes Modell für die Hautkompatibilität sind.

[1] = tested on: Keratinozyten (SK-Mel-28); test: cells; type: cell-based; conditions: Homo sapiens, SK-MEL-28, SK-Mel-28; concentration at which 50 % of the cells die, relative to untreated control cells; read-out: Keratinocyten Zellen IC50
Description: as §1

| SMILES | Löslichkeit in Wasser (Solubility in water) | IC50 (HeLa-Zellen) | IC50 [1] | Löslichkeit in Wasser (Solubility in water; bei 25°C) | Löslichkeit in Wasser (Solubility in water; bei 20°C) |
| --- | --- | --- | --- | --- | --- |
| CCCCN(CCC(=O)OCC)C(C)=O [IR 3535, Ethyl-3-[(acetyl)(butyl)amino]propanoat] | 70 g/L bei 20 °C | 12.5 ± 1.17 µM | 17.5 ± 2.76 µM |  |  |
| CCN(CC)C(=O)c1cccc(C)c1 [DEET, N,N-Diethyl-m-methylbenzamid] | 1 g/L bei 25 °C | 12.4 ± 1.89 µM | 8.1 ± 3.41 µM |  |  |
| CC1CCC(C(C)(C)O)C(O)C1 (stereo not drawn) [PMD, para-Menthan-3,8-diol] |  |  | 14.2 ± 5.23 µM | 0.29 g/L bei 25 °C |  |
| CC[C@@H](C)OC(=O)N1CCCC[C@@H]1CCO (racemic) [KBR 3023, (RS)-sec-butyl-(RS)-2-(2hydroxyethyl) piperidine-1-carboxylat] |  |  |  |  | 8.2 g/L bei 20 °C |
